Data published in patent US20040191239A1, “Treatment and prevention of reactive oxygen metabolite-mediated cellular damage” (priority 1999, published 2004).

What was measured:
[1] = system: brain tissue and cerebral vessels; conditions: cited from earlier work
[2] = cited from earlier work
[3] = Histamine administration time: efficacy and side effects; conditions: administered over longer than about 30 minutes
ROMs = conditions: predictive example; about 10 μg/kg/day subcutaneous as in Example 3
Experimental: Histamine, a H2-receptor agonist, at approximately 10 μg/kg/day, in a pharmaceutically acceptable form is introduced by subcutaneous injection into a subject experiencing or about to experience MI. The above procedure is repeated daily for 7 days.
Histamine is administered to a patient presenting subendocardial myocardial infarction, as described in Example 3.

HCV = conditions: cited from earlier work
NADPH oxidase = NADPH oxidase (Homo sapiens, UniProt P04839); conditions: substrate of the membrane-bound oxidase; cited from earlier work

C#CCN(C)[C@H](C)Cc1ccccc1 [selegiline, L-deprenyl]
NO production ([1]; brain tissue and cerebral vessels): rapid increases in NO production
protection of the vascular endothelium ([1]; toxic effects of amyloid-beta peptide): protected the vascular endothelium
memory ([2]; 173 people, after six months): improved significantly
effect on the benefits of tacrine (Cognex) ([2]; another study, combination with tacrine): enhanced the benefits of tacrine

NCCc1c[nH]cn1 [Histamine, histamine]
efficacy [3]: decreased or lack of efficacy
release or production of ROMs (ROMs): prevention of the release or production of ROMs

alpha-interferon
effectiveness in patients with HCV (HCV; chronic HCV infection): minimally effective
patients experiencing flu-like symptoms (HCV; in vivo): 60-80%
responding patients relapsing to a more progressive disease state (HCV; in vivo): approximately 70%

NC(=O)C1=CN([C@@H]2O[C@H](COP(=O)(O)OP(=O)(O)OC[C@H]3O[C@@H](n4cnc5c(N)ncnc54)[C@H](O)[C@@H]3O)[C@@H](O)[C@H]2O)C=CC1 [NADH]
Km (NADPH oxidase): 450 µM

NC(=O)C1=CN([C@@H]2O[C@H](COP(=O)(O)OP(=O)(O)OC[C@H]3O[C@@H](n4cnc5c(N)ncnc54)[C@H](OP(=O)(O)O)[C@@H]3O)[C@@H](O)[C@H]2O)C=CC1 [NADPH]
Km (NADPH oxidase): 45 µM
